Tests used:
[1] = target: T1, MAGL (Homo sapiens, UniProt Q99685); assay: In vitro competitive substrate hydrolysis enzyme activity assay (pNPA), HEK293 cell lysates; format: biochemical; set-up: expressed in transfected cells; host or cells: HEK293; details: HEK293 lysate
T1 sequence (Q99685 1-303): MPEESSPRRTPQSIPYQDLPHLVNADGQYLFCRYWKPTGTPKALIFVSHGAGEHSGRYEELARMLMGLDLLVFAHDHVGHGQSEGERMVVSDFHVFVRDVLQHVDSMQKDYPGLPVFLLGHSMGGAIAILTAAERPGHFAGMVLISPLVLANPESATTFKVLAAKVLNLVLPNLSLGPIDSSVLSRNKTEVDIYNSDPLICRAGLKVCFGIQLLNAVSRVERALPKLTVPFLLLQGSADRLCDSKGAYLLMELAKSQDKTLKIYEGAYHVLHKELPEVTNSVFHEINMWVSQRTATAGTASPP
Experimental: HEK293 cell lysates expressing recombinant human MAGL enzyme and 4-nitrophenyl acetate (pNPA) substrate were diluted separately in 50 mM HEPES (pH 7.0) containing 200 mM KCl and 1 mM EDTA. Lysates (50 μL, ˜1.2 μg total protein) were preincubated with varying concentrations of inhibitors at 25° C. After 30 min, 2×pNPA substrate (50 μL, 2.5 mM) was added and the rate of substrate turnover was monitored by measuring the increase in absorbance at wavelength 405 nm for 20 minutes at 25° C. using a Biotek Neo2 plate reader. The mean velocity was converted to percent enzyme activity following background subtraction and normalization to DMSO controls. IC50 values were determined by fitting percent enzyme activities to a non-linear regression, 4-parameter, sigmoidal dose response function in Prism GraphPad.

[2] = target: T1, MAGL; assay: In vitro competitive activity-based protein profiling, PC3 human cell membrane proteomes; format: biochemical; set-up: endogenous in cells; host or cells: PC3 human cells (membrane proteome); details: human PC3 membrane proteome; for inhibition at 1 µM: read-out: MAGL % inh. 1 μM (human PC3)
How it was run: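 Competitive ABPP in PC3 membrane proteome (2.0 mg/mL protein): inhibitors preincubated 30 min at 37° C, then JW912-Bodipy probe added for 30 min at room temperature. MAGL band fluorescence after SDS-PAGE normalised to DMSO; IC50 from 4-parameter sigmoidal fit.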

| Compound | IC50 [1] | inhibition at 1 µM [2] | IC50 [2] |
| --- | --- | --- | --- |
| CN(C(=O)C1CC12CCN(C(=O)OC(C(F)(F)F)C(F)(F)F)CC2)c1cccnc1 (single isomer, unassigned) [Example 42, 1,1,1,3,3,3-hexafluoropropan-2-yl (R or S)-1-(methyl(pyridin-3-yl)carbamoyl)-6-azaspiro[2.5]octane-6-carboxylate] | 0.243 µM | 100% | – |
| CN(C(=O)C1CC12CCN(C(=O)OC(C(F)(F)F)C(F)(F)F)CC2)c1cccnc1 (single isomer, unassigned) [Example 43, 1,1,1,3,3,3-hexafluoropropan-2-yl (R or S)-1-(methyl(pyridin-3-yl)carbamoyl)-6-azaspiro[2.5]octane-6-carboxylate] | 0.244 µM | – | 0.04 µM |
| O=C(Nc1ccccn1)C1CC12CCN(C(=O)OC(C(F)(F)F)C(F)(F)F)CC2 (single isomer, unassigned) [Example 48, 1,1,1,3,3,3-hexafluoropropan-2-yl (R or S)-1-(pyridin-2-ylcarbamoyl)-6-azaspiro[2.5]octane-6-carboxylate] | 0.139 µM | 100% | – |
| O=C(Nc1cnccn1)C1CC12CCN(C(=O)OC(C(F)(F)F)C(F)(F)F)CC2 (single isomer, unassigned) [Example 54, 1,1,1,3,3,3-hexafluoropropan-2-yl (R or S)-1-(pyrazin-2-ylcarbamoyl)-6-azaspiro[2.5]octane-6-carboxylate] | 0.111 µM | 100% | – |
| O=C(OC(C(F)(F)F)C(F)(F)F)N1CCC2(CC1)CC2C(=O)N1CCc2cnc(C(F)(F)F)nc2C1 (single isomer, unassigned) [Example 58, 1,1,1,3,3,3-hexafluoropropan-2-yl (R or S)-1-(2-(trifluoromethyl)-5,6,7,8-tetrahydropyrido[3,4-d]pyrimidine-7-carbonyl)-6-azaspiro[2.5]octane-6-carboxylate] | 0.138 µM | – | 0.049 µM |
| O=C(OC(C(F)(F)F)C(F)(F)F)N1CCC2(CC1)CC2C(=O)N1CCc2ncncc2C1 (single isomer, unassigned) [Example 60, 1,1,1,3,3,3-hexafluoropropan-2-yl (R or S)-1-(5,6,7,8-tetrahydropyrido[4,3-d]pyrimidine-6-carbonyl)-6-azaspiro[2.5]octane-6-carboxylate] | 0.0854 µM | – | 0.036 µM |

Stronger by IC50 [1], values ahead:

| IC50 [1] | inhibition at 1 µM [2] | IC50 [2] | Compound |
| --- | --- | --- | --- |
| 0.06 µM | 100% | 0.014 µM | CN(C(=O)C1CC12CCN(C(=O)OC(C(F)(F)F)C(F)(F)F)CC2)c1ccccn1 (single isomer, unassigned) [Example 45, 1,1,1,3,3,3-hexafluoropropan-2-yl (R or S)-1-(methyl(pyridin-2-yl)carbamoyl)-6-azaspiro[2.5]octane-6-carboxylate] |
| 0.0232 µM | 100% | 0.0048 µM | O=C(OC(C(F)(F)F)C(F)(F)F)N1CCC2(CC1)CC2C(=O)N1CCn2cc(C(F)(F)F)nc2C1 (single isomer, unassigned) [Example 51, 1,1,1,3,3,3-hexafluoropropan-2-yl (R or S)-1-(2-(trifluoromethyl)-5,6,7,8-tetrahydroimidazo[1,2-a]pyrazine-7-carbonyl)-6-azaspiro[2.5]octane-6-carboxylate] |
| 0.0169 µM | 100% | 0.007 µM | O=C(OC(C(F)(F)F)C(F)(F)F)N1CCC2(CC1)CC2C(=O)N1CCc2nc(C3CC3)ncc2C1 (single isomer, unassigned) [Example 63, 1,1,1,3,3,3-hexafluoropropan-2-yl (R or S)-1-(2-cyclopropyl-5,6,7,8-tetrahydropyrido[4,3-d]pyrimidine-6-carbonyl)-6-azaspiro[2.5]octane-6-carboxylate] |
| 0.00473 µM | 100% | 0.0017 µM | O=C(OC(C(F)(F)F)C(F)(F)F)N1CCC2(CC1)CC2C(=O)N1CCc2cnc(C(F)(F)F)nc2C1 (single isomer, unassigned) [Example 57, 1,1,1,3,3,3-hexafluoropropan-2-yl (R or S)-1-(2-(trifluoromethyl)-5,6,7,8-tetrahydropyrido[3,4-d]pyrimidine-7-carbonyl)-6-azaspiro[2.5]octane-6-carboxylate] |

— US20240018120A1, “MAGL INHIBITORS” (H. LUNDBECK A/S, priority 2020, published 2024)
